From patent US7135466B2 (Kirin Beer Kabushiki Kaisha, priority 1999, dated 2006)
Where two headings read alike, the source gives them in different places.

Experiments:
PDGF-Ra = target: T1, PDGF-Ra (Homo sapiens, UniProt P16234); assay: Inhibitory activity against PDGF-Ra phosphorylation by PDGF-AA stimulation using G292; type: cell-based; conditions: for IC50: > means inhibition at indicated concentration not more than 50%, < and << not less than 50%, read-out: PDGF (E) IC50; for inhibition at 0.1 µM: G292, at 100 nM, read-out: PDGF (E) inhibition (%) at 100 nM
T1 construct: host or cells: G-292 human osteosarcoma cells
T1 sequence (P16234 24-1089): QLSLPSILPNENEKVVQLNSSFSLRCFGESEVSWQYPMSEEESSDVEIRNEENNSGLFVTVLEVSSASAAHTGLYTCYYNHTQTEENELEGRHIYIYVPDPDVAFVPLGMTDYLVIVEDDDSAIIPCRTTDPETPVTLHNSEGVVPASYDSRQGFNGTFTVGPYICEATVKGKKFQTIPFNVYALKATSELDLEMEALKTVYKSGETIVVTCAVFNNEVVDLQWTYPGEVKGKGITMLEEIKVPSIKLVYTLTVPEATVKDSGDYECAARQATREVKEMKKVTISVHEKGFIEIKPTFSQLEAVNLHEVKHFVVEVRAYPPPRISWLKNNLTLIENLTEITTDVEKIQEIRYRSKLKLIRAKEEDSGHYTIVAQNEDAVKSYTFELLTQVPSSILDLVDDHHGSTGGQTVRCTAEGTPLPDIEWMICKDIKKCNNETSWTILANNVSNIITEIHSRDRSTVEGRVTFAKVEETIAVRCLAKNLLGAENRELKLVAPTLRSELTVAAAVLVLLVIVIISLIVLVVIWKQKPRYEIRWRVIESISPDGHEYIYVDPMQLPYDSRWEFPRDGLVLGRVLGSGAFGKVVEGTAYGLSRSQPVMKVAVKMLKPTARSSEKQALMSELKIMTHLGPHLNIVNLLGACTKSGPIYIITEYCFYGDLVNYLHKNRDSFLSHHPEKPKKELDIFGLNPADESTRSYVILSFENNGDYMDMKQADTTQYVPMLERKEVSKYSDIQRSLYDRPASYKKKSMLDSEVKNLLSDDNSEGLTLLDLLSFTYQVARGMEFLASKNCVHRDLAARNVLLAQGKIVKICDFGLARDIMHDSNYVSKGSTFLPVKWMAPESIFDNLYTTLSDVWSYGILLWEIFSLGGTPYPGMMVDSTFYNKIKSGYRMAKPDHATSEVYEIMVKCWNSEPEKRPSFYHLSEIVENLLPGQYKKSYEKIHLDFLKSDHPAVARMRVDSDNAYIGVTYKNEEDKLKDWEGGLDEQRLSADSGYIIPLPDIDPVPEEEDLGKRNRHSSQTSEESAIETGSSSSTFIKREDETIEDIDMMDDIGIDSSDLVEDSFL
Summary of the method: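 Phosphorylated PDGF-Ra was measured colorimetrically (450 nm) after tyrosine-phosphorylated proteins from G-292 lysates were bound to PY-20-coated wells and detected with anti-PDGF-Ra antibody. Compound preincubation lasted 1 hr, followed by 50 ng/ml PDGF-AA for 5 min.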

c-kit = target: T2, c-kit (Homo sapiens, UniProt P10721); assay: Inhibitory activity against c-kit autophosphorylation (MO7e cells, h-SCF); type: cell-based; conditions: for inhibition at 1 µM: Mo7e, at 1000 nM; for IC50: MO7e cells, read-out: c-kit IC50
T2 construct: MO7e (human megakaryocytic leukemia cell line) which had been arrested for 20 hr; endogenous in cells; host or cells: MO7e human megakaryocytic leukemia cell line
T2 sequence (P10721 26-976): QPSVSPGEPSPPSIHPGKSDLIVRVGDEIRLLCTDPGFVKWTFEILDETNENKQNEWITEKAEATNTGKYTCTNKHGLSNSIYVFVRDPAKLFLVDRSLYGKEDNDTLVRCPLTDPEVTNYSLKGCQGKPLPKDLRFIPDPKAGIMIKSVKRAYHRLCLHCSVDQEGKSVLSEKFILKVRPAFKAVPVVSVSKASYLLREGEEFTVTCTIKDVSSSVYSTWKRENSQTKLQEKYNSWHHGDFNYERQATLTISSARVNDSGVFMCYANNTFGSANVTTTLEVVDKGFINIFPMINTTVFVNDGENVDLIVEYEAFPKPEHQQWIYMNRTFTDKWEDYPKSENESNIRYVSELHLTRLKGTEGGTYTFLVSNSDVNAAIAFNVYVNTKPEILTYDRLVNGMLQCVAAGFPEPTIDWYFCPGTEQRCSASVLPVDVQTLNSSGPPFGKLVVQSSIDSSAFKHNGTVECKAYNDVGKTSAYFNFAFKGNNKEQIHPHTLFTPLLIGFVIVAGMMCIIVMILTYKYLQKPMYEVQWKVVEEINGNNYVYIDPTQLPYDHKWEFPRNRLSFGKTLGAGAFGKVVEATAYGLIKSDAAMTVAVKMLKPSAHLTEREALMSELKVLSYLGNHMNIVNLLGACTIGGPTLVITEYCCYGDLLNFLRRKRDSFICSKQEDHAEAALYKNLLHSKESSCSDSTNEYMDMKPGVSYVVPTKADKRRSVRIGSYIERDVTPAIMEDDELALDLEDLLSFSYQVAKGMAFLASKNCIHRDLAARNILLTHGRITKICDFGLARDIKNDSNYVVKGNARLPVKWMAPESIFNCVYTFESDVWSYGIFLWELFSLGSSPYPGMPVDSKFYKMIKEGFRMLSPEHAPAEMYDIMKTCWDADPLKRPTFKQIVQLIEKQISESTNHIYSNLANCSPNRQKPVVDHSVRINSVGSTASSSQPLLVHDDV
Summary of the method: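 Phospho-c-kit ELISA: plate-bound PY-20 anti-phosphotyrosine captures lysate, anti-c-kit plus peroxidase-labelled secondary antibody detect, read at 450 nm. Lysates come from 20 hr-arrested MO7e cells given compound for 1 hr before a 5 min 50 ng/ml h-SCF stimulus.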

[1] = figure within parentheses in −( ) or >1000( )

`CCCCN(CCCC)CCNC(=O)Nc1ccc(Oc2ncnc3cc(OC)c(OC)cc23)cc1Cl` [Example 686, N-{2-Chloro-4-[(6,7-dimethoxy-4-quinazolinyl)oxy]phenyl}-N′-[2-(dibutylamino)ethyl]urea] gave an IC50 (PDGF-Ra) of 38 nM and an inhibition at 1 µM (c-kit; [1]) of 19%.

With `COc1cc2nccc(Oc3ccc(NC(=O)OCCc4ccccc4)cc3)c2cc1OC` [Example 297, Phenethyl N-{4-[(6,7-dimethoxy-4-quinolyl)oxy]phenyl}carbamate] the IC50 (PDGF-Ra; Pharmacological Test Example 1) was < 10 nM and the IC50 (c-kit; h-SCF 50 ng/ml) was 41 nM.

With `COc1cc2nccc(Oc3ccc(NC(=O)Oc4ccc(-c5ccccc5)cc4)cc3)c2cc1OC` [Example 294, 4-Phenylphenyl N-{4-[(6,7-dimethoxy-4-quinolyl)oxy]phenyl}carbamate] the IC50 (PDGF-Ra; Pharmacological Test Example 1) was 15 nM and the IC50 (c-kit; h-SCF 50 ng/ml) was 109 nM.

`COc1cc2ncnc(Oc3ccc(NC(=O)OCCN4CCOCC4)cc3)c2cc1OC` [Example 399, 2-Morpholinoethyl N-{4-[(6,7-dimethoxy-4-quinazolinyl)oxy]phenyl}carbamate] was tested, and the IC50 (PDGF-Ra) was 63 nM and the IC50 (c-kit; 50 ng/ml h-SCF) was 327 nM.

With `CCCCCCOC(=O)Nc1ccc(Oc2ncnc3cc(OC)c(OC)cc23)cc1` [Example 335, Hexyl N-{4-[(6,7-dimethoxy-4-quinazolinyl)oxy]phenyl}carbamate] the IC50 (PDGF-Ra; Pharmacological Test Example 1) was < 10 nM and the IC50 (c-kit; h-SCF 50 ng/ml) was < 30 nM.

For `COc1cc2nccc(Oc3cc(C)c(NC(=O)OCCCOc4ccc(Cl)cc4)cc3C)c2cc1OC` [Example 29, 3-(4-Chlorophenoxy)propyl N-{4-[(6,7-dimethoxy-4-quinolyl)oxy]-2,5-dimethylphenyl}carbamate], the IC50 (PDGF-Ra; Pharmacological Test Example 1) was 27 nM and the IC50 (c-kit; h-SCF 50 ng/ml) was 121 nM.

Molecule `COc1cc2ncnc(Oc3ccc(NC(=O)NCCN(C)C)cc3)c2cc1OC` [Example 627, N-{4-[(6,7-Dimethoxy-4-quinazolinyl)oxy]phenyl}-N′-[2-(dimethylamino)ethyl]urea] has an IC50 (PDGF-Ra) of 65 nM and an IC50 (c-kit; 50 ng/ml h-SCF) of 774 nM.

With `COc1cc2nccc(Oc3ccc(NC(=O)OCCOc4ccccc4F)cc3)c2cc1OC` [Example 203, 2-(2-Fluorophenoxy)ethyl N-{4-[(6,7-dimethoxy-4-quinolyl)oxy]phenyl}carbamate] the IC50 (PDGF-Ra; Pharmacological Test Example 1) was 25 nM and the IC50 (c-kit; h-SCF 50 ng/ml) was 169 nM.

Molecule `COc1cc2nccc(Oc3ccc(NC(=O)OCCOc4cccc(F)c4)c(C)c3C)c2cc1OC` [Example 208, 2-(3-Fluorophenoxy)ethyl N-{4-[(6,7-dimethoxy-4-quinolyl)oxy]-2,3-dimethylphenyl}carbamate] has an IC50 (PDGF-Ra; Pharmacological Test Example 1) of 18 nM and an IC50 (c-kit; h-SCF 50 ng/ml) of 53 nM.

`COc1cc2ncnc(Oc3ccc(NC(=O)OCc4ccc(F)cc4)c(Cl)c3)c2cc1OC` [Example 12, 4-Fuorobenzyl N-{2-chloro-4-[(6,7-dimethoxy-4-quinazolinyl)oxy]phenyl}carbamate] showed an IC50 (PDGF-Ra; Pharmacological Test Example 1) of 11 nM and an IC50 (c-kit; h-SCF 50 ng/ml) of 389 nM.

In the case of `CCN(CC)CCCOC(=O)Nc1ccc(Oc2ccnc3cc(OC)c(OC)cc23)c(C)c1C` [Example 428, 3-(Diethylamino)propyl N-{4-[(6,7-dimethoxy-4-quinolyl)oxy]-2,3-dimethylphenyl}carbamate], the IC50 (PDGF-Ra) is reported as 64 nM and the IC50 (c-kit; 50 ng/ml h-SCF) is reported as 158 nM.

`COc1cc2nccc(Oc3ccc(NC(=O)OC(C)c4ccc(F)cc4)cc3)c2cc1OC` (stereo not shown) [Example 102, 1-(4-Fluorophenyl)ethyl N-{4-[(6,7-dimethoxy-4-quinolyl)oxy]phenyl}carbamate] was tested, and the IC50 (PDGF-Ra; Pharmacological Test Example 1) was < 10 nM and the IC50 (c-kit; h-SCF 50 ng/ml) was 217 nM.

For `COc1cc2nccc(Oc3ccc(NC(=O)OCc4ccc(C(F)(F)F)cc4)cc3)c2cc1OC` [Example 21, 4-(Trifluoromethyl)benzyl N-{4-[(6,7-dimethoxy-4-quinolyl)oxy]phenyl}carbamate], the IC50 (PDGF-Ra; Pharmacological Test Example 1) was < 10 nM and the IC50 (c-kit; h-SCF 50 ng/ml) was 135 nM.

In the case of `CCCCOc1ccc(C(=O)NC(=S)Nc2ccc(Oc3ccnc4cc(OC)c(OC)cc34)cc2)cc1` [Example 751, N-(4-Butoxybenzoyl)-N′-{4-[(6,7-dimethoxy-4-quinolyl)oxy]phenyl}thiourea], the IC50 (PDGF-Ra) is reported as 70 nM and the inhibition at 1 µM (c-kit; [1]) is reported as 23%.

`COc1cc2ncnc(Oc3ccc(NC(=O)OC4CCCC4)c(Cl)c3)c2cc1OC` [Example 367, Cyclopentyl N-{2-chloro-4-[(6,7-dimethoxy-4-quinazolinyl)oxy]phenyl}carbamate] was tested, and the IC50 (PDGF-Ra; Pharmacological Test Example 1) was 55 nM and the IC50 (c-kit; h-SCF 50 ng/ml) was 207 nM.

In the case of `COc1cc2nccc(Oc3ccc(NC(=S)NC(=O)c4cccc(C)c4C)cc3Cl)c2cc1OC` [Example 1018, N-{3-Chloro-4-[(6,7-dimethoxy-4-quinolyl)oxy]phenyl}-N′-(2,3-dimethylbenzoyl)thiourea], the IC50 (PDGF-Ra) is reported as 10 nM and the IC50 (c-kit; h-SCF stimulation) is reported as 320 nM.

`COc1cc2ncnc(Oc3ccc(N(C)C(=O)OCc4ccccc4Cl)c(Cl)c3)c2cc1OC` [Example 480, 2-Chlorobenzyl N-{2-chloro-4-[(6,7-dimethoxy-4-quinazolinyl)oxy]phenyl}-N-methylcarbamate] showed an IC50 (PDGF-Ra) of 10 nM and an inhibition at 1 µM (c-kit; [1]) of 22%.

`COc1cc2nccc(Oc3ccc(NC(=O)OCCSc4ccc(C)cc4)cc3)c2cc1OC` [Example 137, 3-[(4-Methylphenyl)sulfanyl]ethyl N-{4-[(dimethoxy-4-quinolyl)oxy]-phenyl}carbamate] was tested, and the IC50 (PDGF-Ra; Pharmacological Test Example 1) was < 10 nM and the IC50 (c-kit; h-SCF 50 ng/ml) was 233 nM.

With `COc1cc2nccc(Oc3ccc(NC(=S)NC(=O)CCC4CCCC4)c(Cl)c3)c2cc1OC` [Example 1106, N-{2-Chloro-4-[(6,7-dimethoxy-4-quinolyl)oxy]phenyl}-N′-(3-cyclopentylpropanoyl)thiourea] the IC50 (PDGF-Ra) was > 100 nM, the inhibition at 0.1 µM (PDGF-Ra; figure in parentheses in >100( )) was 30% and the inhibition at 1 µM (c-kit; figure in parentheses in −( )) was 0%.

`COc1cc2nccc(Oc3ccc(NC(=S)NC(=O)C4CCCO4)cc3)c2cc1OC` (stereo not shown) [Example 765, N-{4-[(6,7-Dimethoxy-4-quinolyl)oxy]phenyl}-N′-tetrahydro-2-furanylcarbonylthiourea] showed an IC50 (PDGF-Ra) of 21 nM and an IC50 (c-kit; 50 ng/ml h-SCF) of 937 nM.

`COc1cc2ncnc(Oc3ccc(NC(=S)NC(=O)Cc4ccccc4C)cc3)c2cc1OC` [Example 703, N-{4-[(6,7-Dimethoxy-4-quinazolinyl)oxy]phenyl}-N′-[2-(2-methylphenyl)acetyl]thiourea] was tested, and the IC50 (PDGF-Ra) was < 10 nM and the IC50 (c-kit; 50 ng/ml h-SCF) was 375 nM.

Work on `COc1cc2ncnc(Oc3ccc(NC(=O)OCc4ccc(C)cc4)c(Cl)c3)c2cc1OC` [Example 2, 4-Methylbenzyl N-{2-chloro-4-[(6,7-dimethoxy-4-quinazolinyl)oxy]phenyl}carbamate] yielded an IC50 (PDGF-Ra; Pharmacological Test Example 1) of 17 nM and an IC50 (c-kit; h-SCF 50 ng/ml) of 422 nM.

`COc1cc2nccc(Oc3ccc(NC(=O)NC4CCN(Cc5ccccc5)CC4)cc3Cl)c2cc1OC` [Example 644, N-(1-Benzyl-4-piperidyl)-N′-{3-chloro-4-[(6,7-dimethoxy-4-quinolyl)oxy]phenyl}urea] was tested, and the IC50 (PDGF-Ra) was > 100 nM, the inhibition at 0.1 µM (PDGF-Ra; figure within parentheses in >100( )) was 17% and the inhibition at 1 µM (c-kit; [1]) was 14%.

`COc1cc(Oc2ncnc3cc(OC)c(OC)cc23)ccc1NC(=O)OC1CCCCCC1` [Example 498, Cycloheptyl N-{4-[(6,7-dimethoxy-4-quinazolinyl)oxy]-2-methoxyphenyl}carbamate] was tested, and the IC50 (PDGF-Ra) was < 10 nM and the IC50 (c-kit; 50 ng/ml h-SCF) was 140 nM.

Molecule `COc1cc2ncnc(Oc3ccc(NC(=O)OC(C)c4cccc(N(C)C)c4)cc3)c2cc1OC` (stereo not shown) [Example 202, 1-[3-(Dimethylamino)phenyl]ethyl N-{4-[(6,7-dimethoxy-4-quinazolinyl)oxy]phenyl}carbamate] has an IC50 (PDGF-Ra; Pharmacological Test Example 1) of 10 nM and an IC50 (c-kit; h-SCF 50 ng/ml) of 610 nM.

With `COc1cccc(OC(=O)Nc2ccc(Oc3ccnc4cc(OC)c(OC)cc34)cc2)c1` [Example 214, 3-Methoxyphenyl N-{4-[(6,7-dimethoxy-4-quinolyl)oxy]phenyl}carbamate] the IC50 (PDGF-Ra; Pharmacological Test Example 1) was > 30 nM, the “PDGF (E) inhibition (%) in >30( )” value (PDGF-Ra; figure in parentheses in >30( ), concentration not defined, presumably 30 nM) was 6% and the IC50 (c-kit; h-SCF 50 ng/ml) was 47 nM.
